Assay results: publication PMC12428610, “Gas-Binding Studies of Class 1 Sugar Beet Phytoglobin and C86A Mutant Using Isothermal Spectral Shifts in High-Precision Microliter Assay” (International Journal of Molecular Sciences, 2025)
Several values for one entry are separate records, joined by “and”; a condition that tells them apart may be missing. Equal values may be shown once. Read-outs that look alike come from different tables or passages of the source.

Experiments:
[1] = molecular target: BvPgb 1.2; experiment: Flash photolysis and stopped-flow rapid mixing; KD calculated per Equation (3); type: binding, Beta vulgaris; conditions: rWT, calculated per Equation (3) KD,obs=koff(1+KH)/kon from kinetic parameters of ref 30
Source text: Our obtained results are consistent with KD values derivable from earlier work, where kinetic parameters for BvPgb 1.2 were obtained using stopped-flow rapid mixing and flash photolysis, allowing the calculation of a single apparent KD per gas. While not explicitly reported, KD can be estimated from those data using Equation (3):(3) KD,obs=koff(1+KH)/kon where KH is the hexacoordination equilibrium constant and the (1 + KH) factor is used to account for the “penalty” imposed by the hexacoordinated fraction. […] The additional lower KD or EC50 for CO (400–500 nM) observed with our method likely reflects the contribution of the closed protein form, consistent with the 100–1000-fold kinetic differences reported in [27, 28, 29].

[2] = molecular target: BvPgb 1.2 C86A mutant; experiment: Isothermal spectral shift (SpS) gas-binding titration, Monolith X, RED-NHS-labeled protein; parameters: species or system Beta vulgaris
Source text: (§1) The microscale capillary-based technology described here employs isothermal spectral shift (SpS). SpS has previously primarily been used for the determination of protein–protein interactions. In this study, we examine the possibility to extend the use of this technique to also include the binding of small ligands, like gases, to proteins. Ligand binding induces shifts in fluorescence spectra (blue- or red-shifts), which are detectable under isothermal conditions via dual-wavelength fluorescence detection at 650 nm and 670 nm. By plotting fluorescence intensity ratios (670/650 nm) against ligand concentration, the SpS-derived KD can be obtained. Our goal is to determine KD or half maximal effective concentrations (EC50) from ligand titration series. Here, we present a streamlined microscale method employing fluorophore-labeled proteins in gas-saturated microscale capillaries.
(§2) The proteins were thus incubated in solutions enriched with either CO or dissolved NONOate, utilizing a loading buffer (PBS-T20) to maintain gas saturation. Subsequent titrations of gas-enriched solutions yielded clear, reproducible dose–response curves.
(§3) All SpS measurements conducted in this study were performed using the Monolith X instrument (NanoTemper Technologies GmbH, München, Germany), which is equipped with dual-emission detection optics. The MO.Control 2software (NanoTemper Technologies GmbH) was used to calculate fluorescence intensity ratios at 670 and 650 nm. KD values were determined by fitting dose–response curves to a binding model that follows the law of mass action with a 1:1 interaction stoichiometry. This model defines the bound fraction, f(cL), at equilibrium for a given ligand concentration, cL, as given by Equation (1):(1) fcL=cL+cT+KD−cL+cT+KD^2−4cLcT/2cT where cT is the final concentration of target in the assay. The KD is estimated by fitting Equation (1) with the ratiometric expression seen in Equation (2):(2) RcL=Rf+fcL·Rb−Fb/Ff·Rf/1+fcL·Fb/Ff−1 where R(cL) represents the 670 nm/650 nm ratio at a given cL, Rf corresponds to the ratio of the free target, and Rb corresponds to the bound complex. The parameters Fb and Ff, derived from the sigmoidal dose–response curve fitting of the […], adjust for ligand-induced changes in fluorescence intensity at 650 nm.
(§4) Covalent labeling of primary amines was performed using the Protein Labeling Kit RED-NHS 2nd Generation (cat# MO-L011; NanoTemper Technologies GmbH). The assay buffer (PBS-T20) was prepared by supplementing degassed PBS pH 7.4 (cat# 21-040-CV; Corning, NY, USA) with 0.05% Tween20. Purified proteins in Tris were subjected to buffer exchange using the A-column prior to labeling. Briefly, a twofold molar excess of dye was added to the protein prepared to a final concentration of 20 µM. Proteins and dye were incubated for 30 min at room temperature in the dark to avoid photobleaching. Free dye was removed from the labeled protein using the provided B-column. Labeled proteins were kept in the dark and on ice awaiting capillary loading.
(§5) A working 1 mM CO solution was prepared by sparging PBS-T20 with CO, with the concentration approximated through Henry’s law for CO dissolvability in water (kH(CO) ≈ 0.001 mol l^−1 bar^−1). A working 2 mM NO solution (kH(NO) ≈ 0.002 mol l^−1 bar^−1) was prepared by dissolving 25 mg of NONOate (cat# D184-25MG; Merck, Darmstadt, Germany) in 15 mL of PBS-T20 to obtain a 10.75 mM solution, which provides a 10-molar excess of saturation upon decomposition. The NONOate PBS-T20 solution was gently agitated to create a gas-buffer zone to capture decomposing NONOate. Ligand solutions were prepared as 16-point serial dilutions of 10 µL in PCR-strip tubes, before being mixed by means of aspiration with 10 µL of labeled protein and incubated for 5 min. […]

[3] = molecular target: BvPgb 1.2 recombinant wild type (rWT); experiment: as above; parameters: species or system Beta vulgaris
Source text: as §1, §2, §3, §4, §5

[4] = first transition of biphasic dose-response, read-out: EC50, CO binding, first transition
[5] = second transition of biphasic dose-response, read-out: EC50, CO binding, second transition
[6] = PBS-T20 pH 7.4, NO from NONOate, read-out: KD(NO), Isothermal Spectral Shift
[7] = text and figure legend, read-out: KD, NO binding

Compound: [C-]#[O+] [CO, carbon monoxide]
- Kd ([1]; read-out: KD(CO, open), Flash Photolysis and Stopped-Flow Rapid Mixing): ~100 µM
- KD(CO, closed) /EC50,2, Isothermal Spectral Shift ([2]; PBS-T20 pH 7.4): 0.5 ± 0.2 µM
- KD(CO, open) /EC50,1, Isothermal Spectral Shift ([2]; PBS-T20 pH 7.4): 400 ± 300 µM
- EC50 [2, 4]: ~0.5 µM
- EC50 [2, 5]: ~400 µM
- KD(CO, closed) /EC50,2, Isothermal Spectral Shift ([3]; PBS-T20 pH 7.4): 0.4 ± 0.1 µM
- KD(CO, open) /EC50,1, Isothermal Spectral Shift ([3]; PBS-T20 pH 7.4): 700 ± 200 µM
- EC50 [3, 4]: ~0.4 µM
- EC50 [3, 5]: ~700 µM

Compound: nitric oxide [NO]
- Kd ([1]; read-out: KD(NO), Flash Photolysis and Stopped-Flow Rapid Mixing): ~6.4 µM
- Kd [2, 6]: 0.4 ± 0.1 µM
- Kd [2, 7]: 0.4 µM and ~0.4 µM
- Kd [3, 6]: 1.6 ± 0.1 µM
- Kd [3, 7]: 1.6 µM and ~1.6 µM
